“Also recorded” adds a separate entry of the source.
Key:
[1] = biological target: T1, GCase in fibroblasts with the N370S/RecNcil mutation (Homo sapiens, UniProt P04062, N409S); assay: Pharmacological chaperoning activity (GCase activity in Gaucher patient fibroblasts); type: cell-based; conditions: six concentrations (10 nM to 100 µM), 4 days incubation
T1 construct: Fibroblasts with the N370S/RecNcil mutation from patients with Gaucher disease; host or cells: human Gaucher patient fibroblasts, N370S/RecNciI
T1 sequence (P04062 40-536 N409S): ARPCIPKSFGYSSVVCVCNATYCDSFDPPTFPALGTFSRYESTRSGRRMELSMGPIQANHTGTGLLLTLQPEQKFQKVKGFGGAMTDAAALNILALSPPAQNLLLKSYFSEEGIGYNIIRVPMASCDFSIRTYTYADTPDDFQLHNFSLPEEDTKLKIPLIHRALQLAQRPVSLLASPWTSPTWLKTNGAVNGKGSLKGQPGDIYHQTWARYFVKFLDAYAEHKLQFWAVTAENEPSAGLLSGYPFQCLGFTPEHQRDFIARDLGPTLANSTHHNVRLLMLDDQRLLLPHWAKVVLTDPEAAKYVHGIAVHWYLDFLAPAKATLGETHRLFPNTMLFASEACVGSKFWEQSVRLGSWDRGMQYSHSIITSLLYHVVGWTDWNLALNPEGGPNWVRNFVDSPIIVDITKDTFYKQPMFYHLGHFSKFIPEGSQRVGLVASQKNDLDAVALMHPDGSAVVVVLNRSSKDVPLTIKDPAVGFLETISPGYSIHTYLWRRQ
Protocol: Fibroblasts with the N370S/RecNcil mutation from patients with Gaucher disease were obtained from the “Cell line and DNA Biobank from patients affected by Genetic Diseases” (Gaslini Hospital, Genova, Italy). Fibroblasts cells (15.0 × 10^4) were seeded in T25 flasks with DMEM supplemented with fetal bovine serum (10%), penicillin/streptomycin (1%), and glutamine (1%) and incubated at 37 °C with 5% CO2 for 24 h. The medium was removed, and fresh medium containing compound 10 was added to the cells and left for 4 days. The medium was removed, and the cells were washed with PBS and detached with trypsin to obtain cell pellets, which were washed four times with PBS, frozen, and lysed by sonication in water. Enzyme activity was measured as reported above. Reported data are mean S.D. (n = 2).
Pharmacological chaperoning activity
Fibroblasts with the N370S/RecNcil mutation from Gaucher disease patients were obtained from the “Cell line and DNA Biobank from patients affected by Genetic Diseases” (Gaslini Hospital, Genova, Italy). Fibroblasts cells (20.0 x 104) were seeded in T25 flasks with DMEM supplemented with fetal bovine serum (10%), penicillin/streptomycin (1%), and glutamine (1%) and incubated at 37 °C with 5% CO2 for 24 h. The medium was removed, and fresh medium containing the compounds 9, 10 or 12 at different concentrations (10 nM, 100 nM, 1 µM, 10 µM, 50 µM, 100 µM) was added to the cells and left for 4 days. The medium was removed, and the cells were washed with PBS and detached with trypsin to obtain cell pellets, which were washed four times with PBS, frozen and lysed by sonication in water. Enzyme activity was measured as reported above. Reported data are mean S.D. (n=2).
Figure S52: GCase activity in human fibroblasts derived from GD patients bearing N370/RecNcil mutations in the presence of compound 9.
Figure S53: GCase activity in human fibroblasts derived from GD patients bearing N370/RecNcil mutations in the presence of compound 10. The flasks containing cells incubated with 100 µM and 50 µM […]

[2] = tested on: α-glucosidase EC 3.2.1.20; assay: Commercial glycosidase screening; type: biochemical, yeast; conditions: 0.1 mM inhibitor
Description: (§1) A panel of 12 commercial glycosidases (α-L-fucosidase EC 3.2.1.51 from Homo sapiens, α-galactosidase EC 3.2.1.22 from coffee beans, β-galactosidases EC 3.2.1.23 from Escherichia coli and Aspergillus oryzae, α-glucosidases EC 3.2.1.20 from yeast and rice, amyloglucosidase EC 3.2.1.3 from Aspergillus niger, β-glucosidase EC 3.2.1.21 from almonds, α-mannosidase EC 3.2.1.24 from Jack beans, β-mannosidase EC 3.2.1.25 from snail, β-N-acetylglucosaminidases EC 3.2.1.52 from Jack beans and bovine kidney) purchased from Sigma-Aldrich (St. Louis, MO, USA) or Megazyme Ltd. (Bray, Co. Wicklow, Ireland) was screened.
(§2) The percentage (%) of inhibition towards the corresponding glycosidase was determined in quadruplicate in the presence of 100 μM of the inhibitor on the well. Each enzymatic assay (final volume 0.12 mL) contains 0.01–0.5 units/mL of the enzyme (with previous calibration) and 4.2 mM aqueous solution of the appropriate p-nitrophenyl glycopyranoside (substrate) buffered to the optimal pH of the enzyme. Enzyme and inhibitor were preincubated for 5 min at room temperature, and the reaction started by addition of the substrate. After 20 min of incubation at 37 °C, the reaction was stopped by the addition of 0.1 mL of sodium borate solution (pH 9.8). The p-nitrophenolate formed was measured by visible absorption spectroscopy at 405 nm (Asys Expert 96 spectrophotometer, Biochrom Ltd., Cambridge, England). Under these conditions, the p-nitrophenolate released led to optical densities linear with both reaction time and concentration of the enzyme (for more details, see the Supplementary Materials). The IC50 value (concentration of inhibitor required for 50% inhibition of enzyme activity) was determined from plots of % inhibition vs. different inhibitor concentrations. Each point of the graph is the average of four measures. The standard deviation for each point has been also represented in the graph.

[3] = tested on: β-glucosidase EC 3.2.1.21; assay: Commercial glycosidase screening; type: biochemical, almonds; conditions: for % Inhibition at 0.1 mM, β-glucosidase almonds: 0.1 mM inhibitor
Description: as §1, §2

Row | SMILES | GCase enzyme rescue (chaperoning activity) [1] | % Inhibition at 0.1 mM, α-glucosidase yeast [2] | % Inhibition at 0.1 mM, β-glucosidase almonds [3] | IC50 ([3]; read-out: IC50 (β-glucosidase from almonds)) [µM]
1 | CCCCCCCCCO[C@H]1CNC[C@@H](O)[C@H]1O [compound 9, (3S, 4R, 5R)-4,5-Dihydroxy-3-(Nonyloxy) Piperidine] | did not impart any enzyme rescue; also recorded: None of the compounds gave enzyme rescue |  |  | 
2 | CCCCCCCCCCCCN[C@H]1CNC[C@@H](O)[C@H]1O [compound 10, (3R, 4S, 5S)-3,4-Dihydroxy-5-(Dodecylamino) Piperidine] | failed to rescue the enzyme activity; also recorded: did not impart any enzyme rescue; also recorded: None of the compounds gave enzyme rescue | - (no inhibition detected) | 51±1% | 85
3 | CCCCCCCC[C@]1(O)CNC[C@@H](O)[C@H]1O [compound 12, (3S, 4R, 5R)-3,4,5-Trihydroxy-3-Octyl-Piperidine] | did not impart any enzyme rescue; also recorded: None of the compounds gave enzyme rescue | - (no inhibition detected) | - (no inhibition detected) | 
4 | CCCCCCCCCO[C@@H]1CNC[C@@H](O)[C@H]1O [compound 21, (3R, 4R, 5R)-4,5-Dihydroxy-3-(Nonyloxy) Piperidine] |  | - (no inhibition detected) | - (no inhibition detected) | 

From paper PMC7582770, “Synthesis of “All-Cis” Trihydroxypiperidines from a Carbohydrate-Derived Ketone: Hints for the Design of New β-Gal and GCase Inhibitors” (Molecules, 2020)
